Experimental data from patent US9828351B2, “Enzyme interacting agents” (MONASH UNIVERSITY, priority 2014, dated 2017).

Assays:
recombinant human SphK2 = molecular target: T1, recombinant human SphK2 (Homo sapiens, UniProt Q9NRA0); test: SphK2 activity assay (32P-labelled S1P production); type: biochemical; details: 10 μM compound; % of activity compared to control (DMSO vehicle only); read-out: SphK2% actvity at 10 μm
T1 construct: purchased Johnson and Johnson
T1 sequence (Q9NRA0 1-654): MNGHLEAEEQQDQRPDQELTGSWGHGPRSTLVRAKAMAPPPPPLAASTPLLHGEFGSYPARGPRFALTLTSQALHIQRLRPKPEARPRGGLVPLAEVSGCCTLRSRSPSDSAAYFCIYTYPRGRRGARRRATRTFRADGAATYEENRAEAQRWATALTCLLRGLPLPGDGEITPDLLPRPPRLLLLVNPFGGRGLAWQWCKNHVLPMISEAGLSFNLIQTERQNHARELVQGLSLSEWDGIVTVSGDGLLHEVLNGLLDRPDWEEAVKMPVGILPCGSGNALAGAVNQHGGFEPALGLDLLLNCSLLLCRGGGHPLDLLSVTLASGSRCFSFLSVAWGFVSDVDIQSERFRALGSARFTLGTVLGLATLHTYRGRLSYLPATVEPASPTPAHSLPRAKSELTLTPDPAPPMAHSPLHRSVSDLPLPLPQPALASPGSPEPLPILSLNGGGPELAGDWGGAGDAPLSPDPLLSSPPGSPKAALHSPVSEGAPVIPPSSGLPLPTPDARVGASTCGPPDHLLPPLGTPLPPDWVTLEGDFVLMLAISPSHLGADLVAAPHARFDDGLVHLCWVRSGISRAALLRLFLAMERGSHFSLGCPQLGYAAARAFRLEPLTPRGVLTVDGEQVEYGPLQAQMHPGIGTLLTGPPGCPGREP
Protocol: The SphK assays employed, measure SphK activity through the production of ^32P-labelled S1P following the addition of exogenous Sph and [γ^32P] ATP.
Activities of SphK1 and SphK2 were determined using identical assay conditions with the exception that SphK1 assays used 3 ng/assay recombinant his tagged human SphK1 (made in the lab in a baculovirus system using insect cells), while SphK2 assays used 30 ng/assay recombinant human SphK2 (purchased by Johnson and Johnson).
Compounds were dissolved in DMSO at 10 mM, the mixture was vortexed (and sonicated if necessary). Stock solutions were kept at 4° C. until used.
Aliquots were made containing 100 μM drug compound. These aliquots were then diluted in assay buffer: 100 mM tris/HCl pH 7.4, 100 mM NaCl, 1 mM sodium orthovanadate, 10 mM NaF to make up a 10 μM solution.
Recombinant enzyme was diluted in assay buffer (above) to make up a final concentration of 0.03 ng/μL (SphK1) or 0.33 ng/μL (SphK2).
40 μL recombinant enzyme was added to an Eppendorf® Safe-Lock® microcentrifuge tube. This was followed by the addition of drug compound from prepared aliquots, before adding ATP, [γ^32P]ATP and Sph. Note: ATP stock is made up in 1M Tris pH 7.4 and 200 mM MgCl2. This allows ATP to complex with Mg and be available as a substrate.
The rest of the reaction mixture was then added to the enzyme sample (Table 1). All reactions were performed as triplicates.
Reaction mixture was prepared with sufficient volume to assay all of the required samples. To do this, each of the volumes shown was multiplied by n+1, where n is the number of samples to be assayed. Assay buffer used is made up of 100 mM tris/HCl pH 7.4, 100 mM NaCl, 1 mM sodium orthovanadate and 10 mM NaF.
The mixture was then incubated at 37° C. for 20 min (SphK1)/45 min (SphK2).
To the 100 μL assay mixture, add 270 μl of chloroform/methanol/conc. HCl (100:200:1).
20 μL of 5 M KCl was then added to the assay mixture.
70 μL of chloroform was added to create phase separation. The solution was vortexed to mix well.
The solution was then centrifuged for 5 min at 13,000×g to fully separate the phases.
The upper aqueous/methanol phase was separated by aspiration.
50 μL of the remaining lower chloroform phase […] was applied onto the TLC plate by repeatedly spotting a few microliters of liquid (<5 mm diameter circle) between each sample spot with the pipette tip. The liquid was then allowed to absorb into the plate before drying with a stream of air.
The TLC plate was developed in a glass TLC developing tank with 1-butanol/ethanol/glacial acetic acid/H2O (8:2:1:2) until the mobile phase is within 1 cm of the top of the TLC plate.
The TLC plate was then exposed to a storage phosphor screen overnight. Storage phosphor screens work by capturing images produced by ionising radiation (e.g. ^32P). The phosphorimager stimulates the screen which uses lasers to convert the latent signal to light. Light is proportional to the amount of radioactivity in the sample. The image is then quantified using standard quantification software (ImageQuant™). Whatman paper with the assay mixture dilutions, was included to assist quantification of the phosphor signal.
Once the storage phosphor screen was read using the phosphorimager, S1P spots, which have an Rf of 0.7 with the mobile phase employed, were quantified.
The S1P spot intensity can be converted to the amount of phosphate transferred/min/mg protein.

[1] = molecular target: T2, Dihydroceramide Desaturase-1 (Des1) (Homo sapiens, UniProt O15121); test: Dihydroceramide desaturase-1 (Des1) activity by HPLC in intact Jurkat cells labeled with DhCer-C6-NBD; type: cell-based; details: intact Jurkat cells; read-out: Des 1 IC50
T2 construct: These modifications included the use of parental Jurkat cells; endogenous in cells; host or cells: parental Jurkat cells
T2 sequence (O15121 1-323): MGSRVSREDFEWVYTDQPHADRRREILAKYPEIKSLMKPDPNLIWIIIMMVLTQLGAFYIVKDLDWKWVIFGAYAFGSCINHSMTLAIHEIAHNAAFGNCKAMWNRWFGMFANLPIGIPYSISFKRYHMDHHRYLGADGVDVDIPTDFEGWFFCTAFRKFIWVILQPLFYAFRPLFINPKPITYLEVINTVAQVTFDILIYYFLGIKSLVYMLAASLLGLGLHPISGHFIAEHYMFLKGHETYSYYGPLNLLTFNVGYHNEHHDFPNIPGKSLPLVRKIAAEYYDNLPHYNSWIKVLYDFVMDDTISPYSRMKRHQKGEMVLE
Protocol: Measurement of Dihydroceramide Desaturase-1 (Des1) Activity:
These modifications included the use of parental Jurkat cells, 0.5% serum in the culture media, and cell harvesting via centrifugation at 500×g to maximise ceramide extraction. Extracted samples (50 ul) were analysed on a Waters HPLC coupled to a fluorescence detector using a 30 cm C18 reverse-phase column eluted with 1 ml/min 20% H2O and 80% acetonitrile, both with a 0.1% of trifluoroacetic acid.

remaining activity at 10 µM (recombinant human SphK2): 80 to 100%
IC50 [1]: 100 to 1000 nM
SMILES: Oc1ccc(Nc2nc(-c3ccc(Cl)cc3)cs2)cc1 [SKI-II, reference compound]
